This data set has as its system CCRIS mutagenicity, Ames/micronucleus/aberration tests. Kind of data set: CCRIS mutagenicity studies.
Where [1] appears, read: Test System: AMES SALMONELLA TYPHIMURIUM, Strain/Indicator: TA98, Metabolic Activation: NONE, Method: STANDARD PLATE.
Where [2] appears, read: Test System: AMES SALMONELLA TYPHIMURIUM, Strain/Indicator: TA100, Metabolic Activation: NONE, Method: STANDARD PLATE.

Calls of active or inactive are those of the source. The rule behind the calls is not given here.

For `O=c1cc(-c2ccc(O)cc2)oc2cc(O)cc(O)c12`, the mutagenic call was “inactive; negative” (Test System: AMES SALMONELLA TYPHIMURIUM, Strain/Indicator: TA97, Metabolic Activation: NONE, Method: STANDARD PLATE); “inactive; negative” (Test System: AMES SALMONELLA TYPHIMURIUM, Strain/Indicator: TA97, Metabolic Activation: RAT, LIVER, S-9, AROCLOR 1254, Method: STANDARD PLATE); “inactive; negative” under setting [1]; “inactive; negative” (Test System: AMES SALMONELLA TYPHIMURIUM, Strain/Indicator: TA98, Metabolic Activation: RAT, LIVER, S-9, AROCLOR 1254, Method: STANDARD PLATE); “inactive; negative” under setting [2]; “inactive; negative” (Test System: AMES SALMONELLA TYPHIMURIUM, Strain/Indicator: TA100, Metabolic Activation: RAT, LIVER, S-9, AROCLOR 1254, Method: STANDARD PLATE). Moreover, the mutagenic call (Test System: AMES SALMONELLA TYPHIMURIUM, Strain/Indicator: TA102, Metabolic Activation: NONE, Method: STANDARD PLATE) was “inactive; negative”; the mutagenic call (Test System: AMES SALMONELLA TYPHIMURIUM, Strain/Indicator: TA102, Metabolic Activation: RAT, LIVER, S-9, AROCLOR 1254, Method: STANDARD PLATE) was “inactive; negative”; the mutagenic call (Test System: AMES SALMONELLA TYPHIMURIUM, Strain/Indicator: TA1535, Metabolic Activation: NONE, Method: STANDARD PLATE) is “inactive; negative”; the mutagenic call (Test System: AMES SALMONELLA TYPHIMURIUM, Strain/Indicator: TA1535, Metabolic Activation: RAT, LIVER, S-9, AROCLOR 1254, Method: STANDARD PLATE) is “inactive; negative”; the mutagenic call (Test System: AMES SALMONELLA TYPHIMURIUM, Strain/Indicator: TA1538, Metabolic Activation: NONE, Method: STANDARD PLATE) is “inactive; negative”; the mutagenic call (Test System: AMES SALMONELLA TYPHIMURIUM, Strain/Indicator: TA1538, Metabolic Activation: RAT, LIVER, S-9, AROCLOR 1254, Method: STANDARD PLATE) is “inactive; negative”. Also, the mutagenic call is, setting by setting: (Test System: Mouse lymphoma, Strain/Indicator: L5178Y (tk+/tk-), Metabolic Activation: None, Method: Suspension/plate) “active; positive”; (Test System: Mouse lymphoma, Strain/Indicator: L5178Y (tk+/tk-), Metabolic Activation: Rat, Liver, S-9, Aroclor 1254, Method: Suspension/plate) “active; positive”.

As to `Cc1ccc(NCC2(O)OC[C@@H](O)[C@@H](O)[C@@H]2O)cc1` (some centres not stated), the mutagenic call (Test System: AMES SALMONELLA TYPHIMURIUM, Strain/Indicator: TA100, Metabolic Activation: NONE, Method: LIQUID INCUBATION) is “inactive; negative”.

Turning to `c1ccc(CNc2ncnc3nc[nH]c23)cc1`, the mutagenic call runs as follows: under setting [1], “inactive; negative”; (Test System: AMES SALMONELLA TYPHIMURIUM, Strain/Indicator: TA98, Metabolic Activation: RAT LIVER S-9, 3-METHYLCHOLANTHRENE AND PHENOBARBITAL, Method: STANDARD PLATE) “inactive; negative”; (Test System: AMES SALMONELLA TYPHIMURIUM, Strain/Indicator: TA98, Metabolic Activation: RAT, LIVER, S-9, AROCLOR, Method: STANDARD PLATE) “inactive; negative”; under setting [2], “inactive; negative”; (Test System: AMES SALMONELLA TYPHIMURIUM, Strain/Indicator: TA100, Metabolic Activation: RAT LIVER S-9, 3-METHYLCHOLANTHRENE AND PHENOBARBITAL, Method: STANDARD PLATE) “inactive; negative”; (Test System: AMES SALMONELLA TYPHIMURIUM, Strain/Indicator: TA100, Metabolic Activation: RAT, LIVER, S-9, AROCLOR, Method: STANDARD PLATE) “inactive; negative”. Also, the mutagenic call (Test System: CHINESE HAMSTER V-79, Strain/Indicator: V-79/6-THIOGUANINE (HGPRT), Metabolic Activation: NONE, Method: STANDARD PLATE) is “inactive; negative”.

`CC(=O)Nc1nc2c3cccnc3cc(C)c2n1C`: the mutagenic call is “inactive; negative” (Test System: AMES SALMONELLA TYPHIMURIUM, Strain/Indicator: TA98(1,8-DNP6), Metabolic Activation: RAT, LIVER, S-9, Method: STANDARD PLATE); “active; positive” (Test System: AMES SALMONELLA TYPHIMURIUM, Strain/Indicator: TA98(NR), Metabolic Activation: RAT, LIVER, S-9, Method: STANDARD PLATE); “active; positive” (Test System: AMES SALMONELLA TYPHIMURIUM, Strain/Indicator: TA98, Metabolic Activation: RAT, LIVER, S-9, Method: STANDARD PLATE); “active; positive” (Test System: AMES SALMONELLA TYPHIMURIUM, Strain/Indicator: TA98, Method: STANDARD PLATE).

As for `c1ccc2cc(Nc3ccc(Nc4ccc5ccccc5c4)cc3)ccc2c1`, the mutagenic call is “active; positive (structural changes)” (End Point: IN VITRO CHROMOSOMAL ABERRATIONS, Test System: CHINESE HAMSTER LUNG CELLS (CHL), Metabolic Activation: NONE); “inactive; negative” (End Point: IN VITRO CHROMOSOMAL ABERRATIONS, Test System: CHINESE HAMSTER OVARY CELLS (CHO), Metabolic Activation: NONE); “inactive; negative” (End Point: IN VITRO CHROMOSOMAL ABERRATIONS, Test System: CHINESE HAMSTER OVARY CELLS (CHO), Metabolic Activation: RAT, LIVER, S-9, AROCLOR 1254); “active; positive (structural changes); weak response” (End Point: IN VITRO CHROMOSOMAL ABERRATIONS, Test System: CHL CELLS, Metabolic Activation: S-9); “active; positive (structural changes)” (End Point: IN VITRO CHROMOSOMAL ABERRATIONS, Test System: CHO CELLS, Metabolic Activation: S-9); “active; positive” (Test System: AMES SALMONELLA TYPHIMURIUM, Strain/Indicator: TA98, Metabolic Activation: HAMSTER, LIVER, S-9, AROCLOR 1254 (30%), Method: PREINCUBATION). For the same compound, the mutagenic call (Test System: AMES SALMONELLA TYPHIMURIUM, Strain/Indicator: TA98, Metabolic Activation: NONE, Method: PREINCUBATION) is “inactive; negative”; the mutagenic call (Test System: AMES SALMONELLA TYPHIMURIUM, Strain/Indicator: TA98, Metabolic Activation: RAT LIVER S-9, PHENOBARBITAL AND BETA-NAPHTHOFLAVONE, Method: PREINCUBATION) is “inactive; negative”; the mutagenic call (Test System: AMES SALMONELLA TYPHIMURIUM, Strain/Indicator: TA98, Metabolic Activation: RAT, LIVER, S-9, AROCLOR 1254 (30%), Method: PREINCUBATION) is “inactive; negative”; the mutagenic call (Test System: AMES SALMONELLA TYPHIMURIUM, Strain/Indicator: TA100, Metabolic Activation: HAMSTER, LIVER, S-9, AROCLOR 1254 (30%), Method: PREINCUBATION) is “inactive; negative”; the mutagenic call (Test System: AMES SALMONELLA TYPHIMURIUM, Strain/Indicator: TA100, Metabolic Activation: NONE, Method: PREINCUBATION) is “inactive; negative”; the mutagenic call (Test System: AMES SALMONELLA TYPHIMURIUM, Strain/Indicator: TA100, Metabolic Activation: RAT LIVER S-9, PHENOBARBITAL AND BETA-NAPHTHOFLAVONE, Method: PREINCUBATION) is “inactive; negative”. Moreover, the mutagenic call (Test System: AMES SALMONELLA TYPHIMURIUM, Strain/Indicator: TA100, Metabolic Activation: RAT, LIVER, S-9, AROCLOR 1254 (30%), Method: PREINCUBATION) was “inactive; negative”; the mutagenic call (Test System: AMES SALMONELLA TYPHIMURIUM, Strain/Indicator: TA1535, Metabolic Activation: NONE, Method: PREINCUBATION) was “inactive; negative”; the mutagenic call (Test System: AMES SALMONELLA TYPHIMURIUM, Strain/Indicator: TA1535, Metabolic Activation: RAT LIVER S-9, PHENOBARBITAL AND BETA-NAPHTHOFLAVONE, Method: PREINCUBATION) is “inactive; negative”; the mutagenic call (Test System: AMES SALMONELLA TYPHIMURIUM, Strain/Indicator: TA1537, Metabolic Activation: NONE, Method: PREINCUBATION) was “inactive; negative”; the mutagenic call (Test System: AMES SALMONELLA TYPHIMURIUM, Strain/Indicator: TA1537, Metabolic Activation: RAT LIVER S-9, PHENOBARBITAL AND BETA-NAPHTHOFLAVONE, Method: PREINCUBATION) was “inactive; negative”; the mutagenic call (Test System: AMES SALMONELLA TYPHIMURIUM, Strain/Indicator: TA1538, Metabolic Activation: NONE, Method: PREINCUBATION) is “inactive; negative”. Also, the mutagenic call is “inactive; negative” (Test System: AMES SALMONELLA TYPHIMURIUM, Strain/Indicator: TA1538, Metabolic Activation: RAT LIVER S-9, PHENOBARBITAL AND BETA-NAPHTHOFLAVONE, Method: PREINCUBATION); “inactive; negative” (Test System: E.COLI, Strain/Indicator: WP2UVRA, Metabolic Activation: NONE, Method: PREINCUBATION); “inactive; negative” (Test System: E.COLI, Strain/Indicator: WP2UVRA, Metabolic Activation: RAT LIVER S-9, PHENOBARBITAL AND BETA-NAPHTHOFLAVONE, Method: PREINCUBATION).

For the origin of these results see PubChem BioAssay AID1259407 (Chemical Carcinogenesis Research Information System (CCRIS), 2018).
